Test results from US20260262643A1, “HERBICIDAL BENZOXAZINES” (FMC CORPORATION, priority 2022, published 2026).

Key:
barnyardgrass [1] = assay: Test C preemergence; assay type: in vivo, Echinochloa crusgalli; details: for Barnyardgrass plant response rating: preemergence; for Plant response rating, Barnyardgrass: Preemergence
How it was run: (§1)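 Pre: seeds in loam/sand, directed soil spray. Post: 1–2 leaf plants, 2–10 cm. Cmpd in non-phytotoxic solvent + surfactant. Greenhouse 10 d; visual rating vs untreated, 0 = none, 100 = complete control.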

blackgrass [2] = assay: Test C preemergence; assay type: in vivo, Alopecurus myosuroides; details: for Blackgrass plant response rating: preemergence; for Plant response rating, Blackgrass: Preemergence
How it was run: as §1

corn [3] = assay: Test C preemergence; assay type: in vivo, Zea mays; details: for Corn plant response rating: preemergence; for Plant response rating, Corn: Preemergence
How it was run: as §1

green foxtail [4] = assay: Test C preemergence; assay type: in vivo, Setaria viridis; details: for Foxtail, Green plant response rating: preemergence; for Plant response rating, Foxtail, Green: Preemergence
How it was run: as §1

kochia [5] = assay: Test C preemergence; assay type: in vivo, Bassia scoparia; details: for Kochia plant response rating: preemergence; for Plant response rating, Kochia: Preemergence
How it was run: as §1

oat, wild [6] = assay: Test C preemergence; assay type: in vivo, Avena fatua; details: for Oat, Wild plant response rating: preemergence; for Plant response rating, Oat, Wild: Preemergence
How it was run: as §1

pigweed, palmer [7] = assay: Test C preemergence; assay type: in vivo, Amaranthus palmeri; details: for Pigweed, Palmer plant response rating: preemergence; for Plant response rating, Pigweed, Palmer: Preemergence
How it was run: as §1

ragweed [8] = assay: Test C preemergence; assay type: in vivo, Ambrosia artemisiifolia; details: for Ragweed plant response rating: preemergence; for Plant response rating, Ragweed: Preemergence
How it was run: as §1

ryegrass, Italian [9] = assay: Test C preemergence; assay type: in vivo, Lolium multiflorum; details: for Ryegrass, Italian plant response rating: preemergence; for Plant response rating, Ryegrass, Italian: Preemergence
How it was run: as §1

soybean [10] = assay: Test C preemergence; assay type: in vivo, Glycine max; details: for Soybean plant response rating: preemergence; for Plant response rating, Soybean: Preemergence
How it was run: as §1

wheat [11] = assay: Test C preemergence; assay type: in vivo, Triticum aestivum; details: for Wheat plant response rating: preemergence; for Plant response rating, Wheat: Preemergence
How it was run: as §1

barnyardgrass [12] = assay: Test C postemergence; assay type: in vivo, Echinochloa crusgalli; details: 10 days
How it was run: as §1

blackgrass [13] = assay: Test C postemergence; assay type: in vivo, Alopecurus myosuroides; details: 10 days
How it was run: as §1

corn [14] = assay: Test C postemergence; assay type: in vivo, Zea mays; details: 10 days
How it was run: as §1

green foxtail [15] = assay: Test C postemergence; assay type: in vivo, Setaria viridis; details: 10 days
How it was run: as §1

kochia [16] = assay: Test C postemergence; assay type: in vivo, Bassia scoparia; details: 10 days
How it was run: as §1

oat, wild [17] = assay: Test C postemergence; assay type: in vivo, Avena fatua; details: 10 days
How it was run: as §1

pigweed, palmer [18] = assay: Test C postemergence; assay type: in vivo, Amaranthus palmeri; details: 10 days
How it was run: as §1

ragweed [19] = assay: Test C postemergence; assay type: in vivo, Ambrosia artemisiifolia; details: 10 days
How it was run: as §1

ryegrass, Italian [20] = assay: Test C postemergence; assay type: in vivo, Lolium multiflorum; details: 10 days
How it was run: as §1

soybean [21] = assay: Test C postemergence; assay type: in vivo, Glycine max; details: 10 days
How it was run: as §1

wheat [22] = assay: Test C postemergence; assay type: in vivo, Triticum aestivum; details: 10 days
How it was run: as §1

galium = assay: Test C postemergence; assay type: in vivo, Galium aparine; details: 10 days
How it was run: as §1

horseweed = assay: Test C postemergence; assay type: in vivo, Erigeron canadensis; details: 10 days
How it was run: as §1

barnyardgrass [23] = assay: Test D flooded paddy test; assay type: in vivo, Echinochloa crus-galli; details: 250 g ai/ha, applied to paddy water, visual rating after 13 to 14 days, scale 0 to 100 (0 no effect, 100 complete control)
How it was run: (§2)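 Rating scale 0–100 (0 no effect, 100 complete control), visual, versus controls. Readout at 13–14 days after in-water application to 2-leaf plants in pots flooded 3 cm deep.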

ducksalad = assay: Test D flooded paddy test; assay type: in vivo, Heteranthera limosa; details: 250 g ai/ha, applied to paddy water, visual rating after 13 to 14 days, scale 0 to 100 (0 no effect, 100 complete control)
How it was run: as §2

rice = assay: Test D flooded paddy test; assay type: in vivo, Oryza sativa; details: 250 g ai/ha, applied to paddy water, visual rating after 13 to 14 days, scale 0 to 100 (0 no effect, 100 complete control)
How it was run: as §2

sedge, umbrella = assay: Test D flooded paddy test; assay type: in vivo, Cyperus difformis; details: 250 g ai/ha, applied to paddy water, visual rating after 13 to 14 days, scale 0 to 100 (0 no effect, 100 complete control)
How it was run: as §2

[24] = 500 g ai/ha, 0 to 100 scale (0 no effect, 100 complete control)
[25] = 125 g ai/ha, 0 to 100 scale, 0 no effect, 100 complete control
[26] = 500 g ai/ha, postemergence, 0 to 100 scale (0 no effect, 100 complete control)
[27] = Postemergence, 125 g ai/ha, 0 to 100 scale (0 no effect, 100 complete control)
[28] = 500 g ai/ha, visual rating after 10 days, 0 to 100 scale (0 no effect, 100 complete control)
[29] = Test C, 125 g ai/ha, 0 to 100 scale (0 no effect, 100 complete control)
[30] = 125 g ai/ha, postemergence, 0 to 100 scale, 0 no effect, 100 complete control
[31] = Postemergence, 500 g ai/ha, visual 0 to 100 scale (0 no effect, 100 complete control)

Structure (SMILES): CNc1ncn(-c2cccc(C(=O)N3C[C@H](C)Oc4c(C)cccc43)c2)n1 [Compound 337]
- Barnyardgrass plant response rating (barnyardgrass [1]; [24]): 90
- Plant response rating, Barnyardgrass (barnyardgrass [1]; [25]): 30
- Blackgrass plant response rating (blackgrass [2]; [24]): 50
- Plant response rating, Blackgrass (blackgrass [2]; [25]): 20
- Corn plant response rating (corn [3]; [24]): 40
- Plant response rating, Corn (corn [3]; [25]): 0
- Foxtail, Green plant response rating (green foxtail [4]; [24]): 100
- Plant response rating, Foxtail, Green (green foxtail [4]; [25]): 90
- Kochia plant response rating (kochia [5]; [24]): 80
- Plant response rating, Kochia (kochia [5]; [25]): 0
- Oat, Wild plant response rating (oat, wild [6]; [24]): 20
- Plant response rating, Oat, Wild (oat, wild [6]; [25]): 0
- Pigweed, Palmer plant response rating (pigweed, palmer [7]; [24]): 100
- Plant response rating, Pigweed, Palmer (pigweed, palmer [7]; [25]): 0
- Ragweed plant response rating (ragweed [8]; [24]): 50
- Plant response rating, Ragweed (ragweed [8]; [25]): 30
- Ryegrass, Italian plant response rating (ryegrass, Italian [9]; [24]): 90
- Plant response rating, Ryegrass, Italian (ryegrass, Italian [9]; [25]): 50
- Soybean plant response rating (soybean [10]; [24]): 40
- Plant response rating, Soybean (soybean [10]; [25]): 0
- Wheat plant response rating (wheat [11]; [24]): 10
- Plant response rating, Wheat (wheat [11]; [25]): 0
- Plant response rating, Barnyardgrass (barnyardgrass [12]; [26]): 60
- Plant response rating, Barnyardgrass (barnyardgrass [12]; [27]): 10
- Plant response rating, Blackgrass (blackgrass [13]; [26]): 90
- Plant response rating, Blackgrass (blackgrass [13]; [27]): 40
- Plant response rating, Corn (corn [14]; [26]): 60
- Plant response rating, Corn (corn [14]; [27]): 10
- Plant response rating, Foxtail, Green (green foxtail [15]; [26]): 40
- Plant response rating, Foxtail, Green (green foxtail [15]; [27]): 30
- Plant response rating, Kochia (kochia [16]; [26]): 70
- Plant response rating, Kochia (kochia [16]; [27]): 50
- Plant response rating, Oat, Wild (oat, wild [17]; [26]): 30
- Plant response rating, Oat, Wild (oat, wild [17]; [27]): 10
- Plant response rating, Pigweed, Palmer (pigweed, palmer [18]; [26]): 70
- Plant response rating, Pigweed, Palmer (pigweed, palmer [18]; [27]): 20
- Plant response rating, Ragweed (ragweed [19]; [26]): 60
- Plant response rating, Ragweed (ragweed [19]; [27]): 20
- Plant response rating, Ryegrass, Italian (ryegrass, Italian [20]; [26]): 70
- Plant response rating, Ryegrass, Italian (ryegrass, Italian [20]; [27]): 20
- Plant response rating, Soybean (soybean [21]; [26]): 100
- Plant response rating, Soybean (soybean [21]; [27]): 90
- Plant response rating, Wheat (wheat [22]; [26]): 20
- Plant response rating, Wheat (wheat [22]; [27]): 10
- Plant response rating, Galium (galium; [26]): 90
- Plant response rating, Galium (galium; [27]): 40
- Plant response rating, Horseweed (horseweed; [26]): 20
- Plant response rating, Horseweed (horseweed; [27]): 0
- Plant response rating, Barnyardgrass (Flood) (barnyardgrass [23]): 0
- Plant response rating, Ducksalad (Flood) (ducksalad): 0
- Plant response rating, Rice (Flood) (rice): 0
- Plant response rating, Sedge, Umbrella (Flood) (sedge, umbrella): 0

Structure (SMILES): CCn1cnc(-c2cccc(C(=O)N3C[C@H](C)Oc4c(Cl)cccc43)c2)n1 [Compound 173]
- Plant response rating, Barnyardgrass (barnyardgrass [1]; [28]): 0
- Barnyardgrass plant response rating (barnyardgrass [1]; [29]): 0
- Plant response rating, Blackgrass (blackgrass [2]; [28]): 0
- Blackgrass plant response rating (blackgrass [2]; [29]): 0
- Plant response rating, Corn (corn [3]; [28]): 0
- Corn plant response rating (corn [3]; [29]): 0
- Plant response rating, Foxtail, Green (green foxtail [4]; [28]): 0
- Foxtail, Green plant response rating (green foxtail [4]; [29]): 0
- Plant response rating, Kochia (kochia [5]; [28]): 0
- Kochia plant response rating (kochia [5]; [29]): 0
- Plant response rating, Oat, Wild (oat, wild [6]; [28]): 0
- Oat, Wild plant response rating (oat, wild [6]; [29]): 0
- Plant response rating, Pigweed, Palmer (pigweed, palmer [7]; [28]): 0
- Pigweed, Palmer plant response rating (pigweed, palmer [7]; [29]): 0
- Plant response rating, Ragweed (ragweed [8]; [28]): 60
- Ragweed plant response rating (ragweed [8]; [29]): 30
- Plant response rating, Ryegrass, Italian (ryegrass, Italian [9]; [28]): 50
- Ryegrass, Italian plant response rating (ryegrass, Italian [9]; [29]): 20
- Plant response rating, Soybean (soybean [10]; [28]): 0
- Soybean plant response rating (soybean [10]; [29]): 0
- Plant response rating, Wheat (wheat [11]; [28]): 0
- Wheat plant response rating (wheat [11]; [29]): 0
- Plant response rating, Barnyardgrass (barnyardgrass [12]; [30]): 10
- Plant response rating, Barnyardgrass (barnyardgrass [12]; [31]): 10
- Plant response rating, Blackgrass (blackgrass [13]; [30]): 0
- Plant response rating, Blackgrass (blackgrass [13]; [31]): 0
- Plant response rating, Corn (corn [14]; [30]): 0
- Plant response rating, Corn (corn [14]; [31]): 0
- Plant response rating, Foxtail, Green (green foxtail [15]; [30]): 0
- Plant response rating, Foxtail, Green (green foxtail [15]; [31]): 40
- Plant response rating, Kochia (kochia [16]; [30]): 0
- Plant response rating, Kochia (kochia [16]; [31]): 30
- Plant response rating, Oat, Wild (oat, wild [17]; [30]): 0
- Plant response rating, Oat, Wild (oat, wild [17]; [31]): 0
- Plant response rating, Pigweed, Palmer (pigweed, palmer [18]; [30]): 0
- Plant response rating, Pigweed, Palmer (pigweed, palmer [18]; [31]): 20
- Plant response rating, Ragweed (ragweed [19]; [30]): 0
- Plant response rating, Ragweed (ragweed [19]; [31]): 30
- Plant response rating, Ryegrass, Italian (ryegrass, Italian [20]; [30]): 0
- Plant response rating, Ryegrass, Italian (ryegrass, Italian [20]; [31]): 0
- Plant response rating, Soybean (soybean [21]; [30]): 0
- Plant response rating, Soybean (soybean [21]; [31]): 30
- Plant response rating, Wheat (wheat [22]; [30]): 0
- Plant response rating, Wheat (wheat [22]; [31]): 0
- Plant response rating, Galium (galium; [30]): 20
- Plant response rating, Galium (galium; [31]): 50
- Plant response rating, Horseweed (horseweed; [30]): 10
- Plant response rating, Horseweed (horseweed; [31]): 10
- Plant response rating, Barnyardgrass (Flood) (barnyardgrass [23]): 0
- Plant response rating, Ducksalad (Flood) (ducksalad): 0
- Plant response rating, Rice (Flood) (rice): 0
- Plant response rating, Sedge, Umbrella (Flood) (sedge, umbrella): 0
